The values below come from patent US20220306623A1, “PYRIDYL OR PYRIMIDYL MTOR KINASE INHIBITORS” (GLAXOSMITHKLINE INTELLECTUAL PROPERTY DEVELOPMENT LIMITED, priority 2019, published 2022).

For the assay, the system named is phosphorylated Akt at serine 473 (pAKTs473) in primary human lung fibroblasts. In words: High throughput phosphorylated Akt (Ser473) in vitro immunoassay (MSD). It counts as cell-based. Particulars: Fibroblast, primary human lung fibroblasts (Lonza), 384-well, compound 1 h, PDGF-BB 10 ng/ml 10 min, read-out: mean pIC50, pAKTser473 high throughput immunoassay (converted). The source says: Immunoassay to measure effect of test compounds on phosphorylated Akt at serine 473 (pAKTs473) in primary human lung fibroblasts (Lonza Group Ltd, Basel, Switzerland, Catalogue No. CC-2512) using the MesoScale Discovery (MSD) platform to quantify levels of total Akt and pAKTser473.
Human lung fibroblasts were routinely maintained in fibroblast basal medium supplemented with 2% foetal bovine serum (FBS), 0.1% human fibroblast growth factor (FGF)-B, 0.1% insulin, 0.1% GA-100 (Lonza Group Ltd, Basel, Switzerland, Catalogue No. CC-3132) at 37° C. in 5% CO2 according to the manufacturer's protocol.
For the assay, cells were harvested using Trypsin/EDTA, (Lonza Group Ltd, Basel, Switzerland, Catalogue No. CC-5012), at working concentration of 0.025%, resuspended to give 3×10^5 cells/ml and 50 ul/well seeded into 384-well plates (Greiner Group, Kremsmunster, Austria, Catalogue No. 781091) in media containing 0.4% FBS and incubated o/n at 37° C. in 5% CO2.
Test compounds were dissolved in 100% DMSO to give 10 mM stock solutions and serially diluted to generate an 11-point concentration response curve. Compound were further diluted by […] into 384-well V-bottom polypropylene plates (Greiner Group, Kremsmunster, Austria, Catalogue No. 781280) with media containing 0.4% FBS to give 50 µM top compound concentration in 0.5% DMSO.
Compounds were transferred to 384-well plates contacting cells (0.1% DMSO final) and incubated for 1 h at 37° C. in 5% CO2, prior to stimulation with platelet-derived growth factor (PDGF)-BB (R&D Systems, Catalogue No. 220-BB) at 10 ng/ml (final) for 10 min at RT. Cell assay plates were incubated on ice and treated with lysis buffer (Cell Signalling Technology, Catalogue No. 9806) containing protease and phosphatase inhibitors (Thermo Scientific, Catalogue No. 78444) followed by shaking for 30 min at 4° C.
MSD plates (MSD, MA6000 384-well GAR plate, Catalogue No. L21RA-2) were blocked with blocking buffer containing TBS (MSD, Cat. No. R61TX-1) with 0.5% bovine serum albumin (BSA) (Sigma Aldrich, Cat. No. A7906), 0.1% tween-20 (Sigma Aldrich, Catalogue No. P2287) and coated with rabbit-anti-human pAkt (s473) ab (Cell Signalling Technology, Catalogue No. CST #4060) at RT with shaking, followed by washing (×3) with 1×TBS wash reagent containing 0.1% Tween-20. Cell lysates (30 ul) were added and MSD plates centrifuged at 1000 rpm at 4° C. o/n.
Plates were washed with 1×TBS wash buffer (×3), prior to addition of mouse-anti-human-total Akt ab (1 mg/ml) (Upstate (Milipore), Catalogue No. 05-591) in blocking buffer and shaken at RT for 1 h. After washing with 1×TBS wash buffer (×3), plates were incubated with goat-anti-mouse SULFO-TAG detection ab (MSD, Catalogue No. R32AC-1) (1:500 in blocking buffer) for 1 h at RT. Plates were washed with 1×TBS (×3) and read buffer (2×) (MSD, Catalogue No. R92TC-1) added before detecting electrochemiluminescence (MSD Sector Imager 6000).
Data analysis was performed by determining % inhibition values for test compounds relative to the minimum (+PDGF-BB stimulation) and maximum responses (no PDGF-BB stimulation) with non-linear regression analysis to determine IC50 values for test compounds.

Turning to `CC[C@H]1COCCN1c1cc(CS(C)(=O)=O)nc(-c2ccc3[nH]c(CNC)cc3n2)n1` [Example 1, [(5-{4-[(3S)-3-ethylmorpholin-4-yl]-6-(methanesulfonylmethyl)pyrimidin-2-yl}-1H-pyrrolo[3,2-b]pyridin-2-yl)methyl](methyl)amine], the IC50 was 2.51 to 25.1 nM.

Turning to `CC[C@H]1COCCN1c1cc(CS(N)(=O)=O)cc(-c2ccc3[nH]c(C)cc3n2)n1` [Example 23, (S)-(2-(3-ethylmorpholino)-6-(2-methyl-1H-pyrrolo[3,2-b]pyridin-5-yl)pyridin-4-yl)methanesulfonamide], the IC50 was 2.51 to 25.1 nM. On to `CC[C@H]1COCCN1c1cc(CS(=O)(=O)NC)nc(-c2ccc3[nH]c(CO)cc3n2)n1` [Example 10, 1-{6-[(3S)-3-ethylmorpholin-4-yl]-2-[2-(hydroxymethyl)-1H-pyrrolo[3,2-b]pyridin-5-yl]pyrimidin-4-yl}-N-methylmethanesulfonamide], for which the IC50 was 2.51 to 25.1 nM. With `CC[C@H]1COCC(=O)N1c1cc(CS(C)(=O)=O)nc(-c2ccc3[nH]c(C)cc3n2)n1` [Example 14, (5S)-5-ethyl-4-[6-(methanesulfonylmethyl)-2-{2-methyl-1H-pyrrolo[3,2-b]pyridin-5-yl}pyrimidin-4-yl]morpholin-3-one], the IC50 is 2.51 to 25.1 nM. `CCc1cc2nc(-c3nc(CS(C)(=O)=O)cc(N4C(=O)COC[C@@H]4CC)n3)ccc2[nH]1` [Example 15, (5S)-5-ethyl-4-(2-{2-ethyl-1H-pyrrolo[3,2-b]pyridin-5-yl}-6-(methanesulfonylmethyl)pyrimidin-4-yl)morpholin-3-one]: the IC50 was 2.51 to 25.1 nM. Take `CC[C@H]1COCC(=O)N1c1cc(C2(S(C)(=O)=O)CCOCC2)cc(-c2ccc3[nH]c(C)cc3n2)n1` [Example 25, (S)-5-ethyl-4-(6-(2-methyl-1H-pyrrolo[3,2-b]pyridin-5-yl)-4-(4-(methylsulfonyl)tetrahydro-2H-pyran-4-yl)pyridin-2-yl)morpholin-3-one]: the IC50 is 2.51 to 25.1 nM. As for `CC[C@H]1COCCN1c1cc(CS(=O)(=O)N(C)C)nc(-c2ccc3[nH]c(CO)cc3n2)n1` [Example 9, 1-{6-[(3S)-3-ethylmorpholin-4-yl]-2-[2-(hydroxymethyl)-1H-pyrrolo[3,2-b]pyridin-5-yl]pyrimidin-4-yl}-N,N-dimethylmethanesulfonamide], the IC50 is 2.51 to 25.1 nM. As for `CNCc1cc2nc(-c3cc(CS(C)(=O)=O)cc(N4CCO[C@H](C)[C@H]4C)n3)ccc2[nH]1` [Example 8, 1-(5-(6-((2R,3R)-2,3-dimethylmorpholino)-4-((methylsulfonyl)methyl)pyridin-2-yl)-1Hpyrrolo[3,2-b]pyridin-2-yl)-Nmethylmethanamine], the IC50 was 2.51 to 25.1 nM.

Take `CC[C@H]1COCC(=O)N1c1cc(CS(C)(=O)=O)cc(-c2ccc3[nH]c(C)cc3n2)n1` [Example 24, (S)-5-ethyl-4-(6-(2-methyl-1H-pyrrolo[3,2-b]pyridin-5-yl)-4-((methylsulfonyl)methyl)pyridin-2-yl)morpholin-3-one]: the IC50 was 2.51 to 25.1 nM. As for `CC[C@H]1COCCN1c1cc(C2(S(C)(=O)=O)CCOCC2)nc(-c2ccc3[nH]c(C)cc3n2)n1` [Example 13, (3S)-3-ethyl-4-[6-(4-methanesulfonyloxan-4-yl)-2-{2-methyl-1H-pyrrolo[3,2-b]pyridin-5-yl}pyrimidin-4-yl]morpholine], the figure is 2.51 to 25.1 nM; as for `CC[C@H]1COCCN1c1cc(CS(=O)(=O)N(C)C)nc(-c2ccc3[nH]c(CNC)cc3n2)n1` [Example 16, 1-{6-[(3S)-3-ethylmorpholin-4-yl]-2-{2-[(methylamino)methyl]-1H-pyrrolo[3,2-b]pyridin-5-yl}pyrimidin-4-yl}-N,N-dimethylmethanesulfonamide], 2.51 to 25.1 nM.

`CC[C@H]1COCC(=O)N1c1cc(C2(S(C)(=O)=O)CCOCC2)cc(-c2ccc3[nH]c(CO)cc3n2)n1` [Example 26]: the IC50 was 2.51 to 25.1 nM.
